This is an account of results in patent US7960552B2, “Farnesoid X receptor agonists” (GlaxoSmithKline LLC, priority 2006, dated 2011).

Entries after “also recorded” stand apart in the source; their conditions may differ.

Assay [1] deals with high-fat diet fed obese mice. Nature of the assay: Effects of FXR agonists on diet induced obese mice. In kind it is in vivo, C57BL mice. Conditions: 10, 30 and 100 mg/kg twice a day orally; for serum NEFA / serum cholesterol / serum glucose / serum glycerol / serum insulin / serum triglyceride: end of study; for body fat mass: four weeks of treatment, QMR. The method, then:
Methods: Male 20 to 25 g C57BL mice (Charles River, Indianapolis, Ind.) were housed at 72° F. and 50% relative humidity with a 12 h light and dark cycle and fed with standard rodent chow (Purina 5001, Harlan Teklad, Indianapolis, Ind.) or a high-fat diet (TD93075, Harlan Teklad, Indianapolis, Ind.) for eight weeks. After three weeks, mice on high-fat diet were randomized to vehicle or treatment groups based on fasting glucose and body weight. Starting from the fifth week, mice were given either vehicle or the compound in Example 1 (10, 30 and 100 mg/kg) or the compound in Example 5 (10, 30, 100 mg/kg) twice a day orally. Mice on the standard rodent chow were also given vehicle as a control. Body composition was measured using the quantitative magnetic resonance (QMR) method before and at the end of compound treatment. […] Serum chemistry levels were measured using the Instrumentation Laboratory Ilab600™ clinical chemistry analyzer (Instrumentation Laboratory, Boston, Mass.).

Assay [2] deals with hepatic stellate cells (HSC). Conditions: cultured HSCs; cited from earlier work.
Assay [3] deals with rodent models of hepatic fibrosis. The note with it: multiple rodent models; cited from earlier work.
Assay [4] relates to high-fat diet induced insulin resistant, glucose intolerant, and obese mouse model. Conditions: mice on high-fat diet, cited from earlier work.
A further assay deals with db/db mice. The note with it: oral 30 mg/kg, bid; cited from earlier work.
Assay [5] concerns bile duct-ligated mouse model. Conditions: cited from earlier work.
Setting [6] is: 100 mg/kg twice a day orally, 100 mg/kg.

Consider `CC(C)c1onc(-c2c(Cl)cccc2Cl)c1COc1ccc(-c2ccc3nc(C(=O)O)ccc3c2)cc1` [Example 1, 6-[4-({[3-(2,6-Dichlorophenyl)-5-(1-methylethyl)-4-isoxazolyl]methyl}oxy)phenyl]-2-quinolinecarboxylic Acid], for which, in assay [1], the “serum NEFA” value was “decreased”, the serum cholesterol entry is reported as “decreased”, the serum glucose entry is recorded as “decreased” and the serum glycerol result is given as “decreased”. In assay [1], the serum insulin result was “decreased”, the serum triglyceride entry is “decreased” and the body fat mass entry is “decreased”.

As for `CC(C)c1onc(-c2c(Cl)cccc2Cl)c1COc1ccc(-c2ccc3cc(C(=O)O)ncc3c2)cc1` [Example 5, 7-[4-({[3-(2,6-Dichlorophenyl)-5-(1-methylethyl) -4-isoxazolyl]methyl}oxy)phenyl]-3-isoquinolinecarboxylic acid], in assay [1], the “serum NEFA” value is reported as “decreased”, the serum cholesterol result is listed as “decreased”, the serum glucose result is recorded as “decreased” and the serum glycerol result is “decreased”. In addition, in assay [1], the serum insulin entry is given as “decreased”, the serum triglyceride result is recorded as “decreased” and the body fat mass result is “decreased”.

In the case of `CC[C@H]1[C@@H](O)[C@@H]2[C@H](CC[C@]3(C)[C@@H]([C@H](C)CCC(=O)O)CC[C@@H]23)[C@@]2(C)CC[C@@H](O)C[C@@H]12` [Example 6EtCDCA, 6-ethyl-chenodeoxycholic acid], in assay [2], the “expression of fibrotic marker α1(I)collagen” value is recorded as “decreased” and the “expression of fibrotic marker α-smooth muscle actin” value was “decreased”. Moreover, in assay [3], the “development of hepatic fibrosis” value is given as “prevent” and the “resolution of hepatic fibrosis” value was “promote”.

On to `CC(C)c1onc(-c2c(Cl)cccc2Cl)c1COc1ccc(/C=C/c2cccc(C(=O)O)c2)c(Cl)c1` [GW4064], for which, in assay [4] (setting [6]), the serum glucose result is recorded as “decreased”, the serum insulin result is reported as “decreased” and the serum triglyceride result is reported as “decreased”. Further, the glucose tolerance result in assay [4] (100 mg/kg twice a day orally, GTT, 100 mg/kg) was “corrected glucose intolerance; also recorded: improve”. For the same compound, in assay [4] (100 mg/kg twice a day orally), the “high-fat diet induced body weight gain” value is recorded as “reduced” and the liver triglyceride content entry is “reduced”. In assay [4], the body fat mass entry is “decrease”, the body weight entry is “decrease” and the serum total cholesterol entry is listed as “decrease”. In addition, in the assay on db/db mice, the NEFA entry was “decreased”, the total cholesterol entry is given as “decreased” and the triglyceride entry was “decreased”. In assay [5], the bacterial overgrowth entry was “decreased”, the mucosal barrier entry is “improved” and the “translocation of bacteria to mesenteric lymph nodes” value was “decreased”.
